Patent publication EP0714662A1, “ANTIALLERGIC AGENT” (MEIJI MILK PRODUCTS COMPANY LIMITED, priority 1993, dated 1995)
Ends that are not written are not given here. Peptide text beside a SMILES is read from it.

Legend:
[1] = system: serum IgE from 15 patients suffering from mite rhinallergosis; assay: Enzyme antibody assay: binding of solid phase Der p II overlapping peptides to patients' serum IgE; design: species or system human; details: serum from each of 15 patients
Experimental: The complete primary structure of the amino acid sequence of a Der p II protein was determined after cDNA was isolated therefrom by Chua et al. (Int. Arch. Allergy Appl. Immunol. 91: 118-123, 1990). Based on the amino acid sequence, peptides were synthesized on a solid phase using a multipin system (manufactured by Chiron) and coupling reagents, Fmoc-amino acid and DCC (dicyclohexyl carbodiimide) (Geysen, H.M. et al., Proc. Natl. Acad. Sci. USA. 81:3998-4002, 1984). Sixty-one kinds of peptides were synthesized, the first peptide comprising the first through ninth amino acids of the N-terminal of Der p II, the second peptide comprising the third through eleventh amino acids of the N-terminal, and the third through 61st peptides being prepared in an analogous manner.
The RAST (radio-allergosorbent test, Pharmacia) values as determined using antigens from two mite species, Dermatophagoides pteronyssinus (Der p) and Dermatophagoides farina (D f), were class 4. Each of the above-mentioned 61 synthesized peptides and 100 µl of each patient's serum were placed in a 96-well plate and reacted overnight at room temperature. Synthesized peptides in a solid phase were washed three times to remove the patient's serum using a washing solution of 0.05% Tween 20/0.15 M NaCl/Tris-HCl (pH 7.5). 100 µl of galactosidase-labelled anti-human IgE antibodies (Pharmacia) were diluted to 40-fold using a 1:9 diluted Block-ace (product of Dainippon Seiyaku K.K.). The diluted solution was added to a 96-well plate, each synthesized solid phase peptide was also added, and reaction, was allowed to proceed overnight at room temperature. The synthesized solid phase peptide was washed with the same washing solution five times. Thereafter, to a 96-well black plate (manufactured by Dainippon Seiyaku K.K.), were added 200 µl of a solution of 0.1 mM 4-methylumbelliferyl-β-D-galactopyranoside in 0.1% bovine serum albumin/0.1 M NaCl/1 mM MgCl₂/0.1% sodium azide/10 mM phosphate buffer (pH 7.0). Subsequently, the synthesized solid phase peptide was added and reacted for 2 hours at 37°C. After completion of reaction, 100 µl of a reaction terminating solution (0.1 M glycin/NaOH, pH 10.3) were added to each well, and absorbance was measured using a fluorospectrophotometer for 96-well plates (Manufactured by Flow). This reaction was studied for each of 15 patients.

[2] = system: serum IgE of cryptomeria pollinosis patients; assay: Enzyme antibody assay: binding of solid phase Cry j II overlapping peptides to patients' serum IgE; design: species or system human
From the text: Presently, however, the C-terminal amino acids are unknown. Therefore, overlapping peptides were synthesized on a solid phase using an Fmoc-amino acid and multipin system (manufactured by Chiron) so as to cover all the proteins consisting of 460 amino acid residues (Sequence No. 1) other than the N-terminal moiety. The first peptide comprises the first through ninth amino acids in the N-terminal moiety of a Cry j II protein. The second peptide comprises the third through eleventh amino acids in the N-terminal moiety.
Subsequently, using a washing solution of 0.05% Tween 20/0.15 M NaCl/Tris-HCl (pH 7.5), synthesized solid phase peptides were washed three times to remove the patient's serum. Using a 1:9 diluted Block-ace (product of Dainippon Seiyaku K.K.), 100 µl of galactosidase-labelled anti-human IgE antibodies (Pharmacia) were diluted to 40-fold. The diluted solution was added to a 96-well plate, and then each synthesized solid phase peptide was also added. Reaction was allowed to proceed overnight at room temperature. The synthesized solid phase peptide was washed with the same washing solution five times. Thereafter, 200 µl of a solution of 0.1 mM 4-methylumbelliferyl-β-D-galactopyranoside in 0.1% bovine serum albumin/0.1 M NaCl/1 mM MgCl₂/0.1% sodium azide/10 mM phosphate buffer (pH 7.0) were added to a 96-well black plate (manufactured by Dainippon Seiyaku K.K.). Subsequently, the synthesized solid phase peptide was added and reacted for 2 hours at 37°C.

basophils of a patient = assay: Histamine release inhibition test with peptide D, blood of egg allergy patients; assay type: cell-based, human
Experimental: The histamine release inhibition test was performed using a histamine kit "Eiken" manufactured by Eiken Kagaku K.K. Briefly, heparinized peripheral blood was collected from each patient, and the blood was diluted to a 1:1 ratio using a buffer for release tests. Equivalent amounts of a diluted peptide D (which had been diluted to double the density of an inhibitory concentration using a buffer for release tests) and a diluted blood from a patient (which had been diluted to a 1:1 ratio) were mixed and allowed to react overnight at 4°C. Subsequently, fifty µl of peptide B or OVA diluted with a buffer for release was mixed with 100 µl of the patient's blood with which peptide D was reacted. […] After the histamine tubes were incubated for 16 to 24 hours, the solution was drawn off using an aspirator, and measured using a gamma scintillation counter. The amount of total histamine was determined using a supernatant sample obtained by adding 1 ml of purified water to 50 µl of whole blood, freezing and thawing, then centrifugally separating. […] The ratio of the difference with respect to the total amount of histamine was calculated and taken as a histamine release ratio. Inhibition ratio (%) was calculated by the following equation: %Inhibition = {1-(histamine release ratio in the presence of an inhibitory peptide)/(histamine release ratio in the absence of an inhibitory peptide)} x 100 [formula] […]

Row | Molecule | binding reactions with IgE antibodies [1] | reaction with serum IgE of cryptomeria pollinosis patients [2] | other results
1 | NVPKIAPKS [synthesized peptide No. 47] | exhibited binding reactions with IgE antibodies |  | 
2 | NLFFNGPCQ [Asn-Leu-Phe-Phe-Asn-Gly-Pro-Cys-Gln] |  | reacted serum IgE of cryptomeria pollinosis patients | 
3 | PKSENVVVT [synthesized peptide No. 50] | exhibited binding reactions with IgE antibodies |  | 
4 | ANQNTKTAK [synthesized peptide No. 22] | exhibited binding reactions with IgE antibodies |  | 
5 | VVTVKVMGD [synthesized peptide No. 53] | exhibited binding reactions with IgE antibodies |  | 
6 | SASACQNQR [Ser-Ala-Ser-Ala-Cys-Gln-Asn-Gln-Arg] |  | reacted serum IgE of cryptomeria pollinosis patients | 
7 | QCKWVNGRE |  | reacted serum IgE of cryptomeria pollinosis patients | 
8 | IATHAKIRD [synthesized peptide No. 61] | exhibited binding reactions with IgE antibodies |  | 
9 | KIEIKASID [synthesized peptide No. 26] | exhibited binding reactions with IgE antibodies |  | 
10 | FQLEAVFEA [synthesized peptide No. 18] | exhibited binding reactions with IgE antibodies |  | 
11 | SENVVVTVK [synthesized peptide No. 51] | exhibited binding reactions with IgE antibodies |  | 
12 | SIDGLEVDV [synthesized peptide No. 29] | exhibited binding reactions with IgE antibodies |  | 
13 | KWVNGREIC [Lys-Trp-Val-Asn-Gly-Arg-Glu-Ile-Cys] |  | reacted serum IgE of cryptomeria pollinosis patients | 
14 | EFRADHPFLF [peptide D] |  |  | suppression ratio of histamine release caused by untreated OVA (basophils of a patient; peptide D 1.4 mg/ml): 93%; suppression of histamine release caused by stimulant peptide B (basophils of a patient; peptide D at a concentration of not less than 1.4 mg/ml): at least 85%
15 | KCPLVKGQQ [synthesized peptide No. 39] | exhibited binding reactions with IgE antibodies |  | 
16 | C[C@H](NC(=O)[C@H](CO)NC(=O)[C@H](C)NC(=O)[C@H](CO)NC(=O)[C@@H](NC(=O)[C@@H](N)CS)[C@@H](C)O)C(=O)N[C@@H](CS)C(=O)N[C@@H](CCC(N)=O)C(=O)N[C@@H](CC(N)=O)C(=O)O [Cys-Thr-Ser-Ala-Ser-Ala-Cys-Gln-Asn] (H-CTSASACQN-OH) |  | reacted serum IgE of cryptomeria pollinosis patients | 
17 | C[C@@H](O)[C@H](NC(=O)[C@H](CS)NC(=O)[C@H](CC(N)=O)NC(=O)[C@@H]1CCCN1)C(=O)N[C@@H](CC(N)=O)C(=O)N[C@@H](CCCCN)C(=O)N[C@@H](CS)C(=O)N[C@@H](Cc1c[nH]cn1)C(=O)NCC(=O)O [Pro-Asn-Cys-Thr-Asn-Lys-Cys-His-Gly] (H-PNCTNKCHG-OH) |  | reacted serum IgE of cryptomeria pollinosis patients | 
